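Step 1: Grow cells in 96-well plates. Step 2: Expose to compound for 48 hours at 5 concentrations. Step 3: Interpolate endpoints linearly; if unreached, use highest concentration. Definition used: TGI = concentration required for complete inhibition of growth.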
Tests used:
Test in all cases: NCI-60 cell line screen, 48 h
[1] = test system: U251 CNS
[2] = test system: SF-295 CNS
[3] = test system: UO-31 renal
[4] = test system: UACC-257 melanoma
[5] = test system: SF-268 CNS
[6] = test system: UACC-62 melanoma
[7] = test system: LOX IMVI melanoma
[8] = test system: K-562 leukemia
[9] = test system: M14 melanoma
[10] = test system: SK-MEL-28 melanoma
[11] = test system: CAKI-1 renal
[12] = test system: HOP-62 NSCLC
[13] = test system: OVCAR-4 ovarian

SMILES | TGI [1] | TGI [2] | TGI [3] | TGI [4] | TGI [5] | TGI [6] | TGI [7] | TGI [8] | TGI [9] | TGI [10] | TGI [11] | TGI [12] | TGI [13]
C[C@]12Cc3cnc(-c4ccccc4)nc3C[C@@H]1CC[C@@H]1[C@@H]2CC[C@@]2(C)[C@H]1CC[C@]2(C)O | 41.4 µM | 52.4 µM | 7.06 µM | 44.9 µM | 33 µM | 48.4 µM | 31.3 µM | 29.4 µM | 32.5 µM | 56.9 µM | 16.6 µM | 41.6 µM | 66.7 µM
CC(C)=Cc1cc(C)c2c3c(c(O)c(O)c(C)c13)C(C)=CC2=O | 92 µM | 48.6 µM | > 100 µM | > 100 µM | 60.3 µM | 50.8 µM | 38 µM | > 100 µM | 48.9 µM |  | 58.5 µM | 47.2 µM | 
CN(CCO)Cc1ncccc1O | > 100 µM | > 100 µM | > 100 µM | > 100 µM | > 100 µM | > 100 µM | > 100 µM | > 100 µM | > 100 µM | > 100 µM | > 100 µM | > 100 µM | > 100 µM
O=S(=O)(O)c1cc(S(=O)(=O)O)c2cc(N=Nc3c(O)ccc4ccccc34)ccc2c1 | > 100 µM | > 100 µM | > 100 µM | > 100 µM | > 100 µM | > 100 µM | > 100 µM | > 100 µM | > 100 µM | > 100 µM | > 100 µM | > 100 µM | > 100 µM
CN1CC(c2ccccc2)C(O)(C2(c3ccccc3)CN(C)CC(c3ccccc3)C2=O)C(c2ccccc2)C1 (configuration not stated) | > 100 µM | > 100 µM | > 100 µM | > 100 µM | > 100 µM | > 100 µM | > 100 µM | > 100 µM | > 100 µM | > 100 µM | > 100 µM | > 100 µM | > 100 µM
Nc1c(OCC(=O)O)ccc2cc(S(=O)(=O)O)ccc12 | > 100 µM | > 100 µM | > 100 µM | > 100 µM | > 100 µM | > 100 µM | > 100 µM | > 100 µM | > 100 µM | > 100 µM | > 100 µM | > 100 µM | > 100 µM
CCC1C(C#N)=C(O)NC(O)=C1C#N | > 100 µM | > 100 µM | > 100 µM | > 100 µM | > 100 µM | > 100 µM | > 100 µM |  | > 100 µM | > 100 µM | > 100 µM | > 100 µM | > 100 µM
COc1ccc(C(=O)NC2=C(Cl)C(=O)c3ccccc3C2=O)cc1 | 8.38 µM | 13.8 µM | 8.75 µM | 4.5 µM | 35.6 µM | 2.63 µM | 6.66 µM | > 100 µM | 6.95 µM | 17.9 µM | 6.94 µM | 60.8 µM | 7.72 µM
CC1C2CCC3C(O)C2(CC(O)C2(O)C1CC(O)C2(C)C)CC3(C)O (configuration not stated) | > 100 µM | > 100 µM | > 100 µM | > 100 µM | > 100 µM | > 100 µM | > 100 µM | > 100 µM | > 100 µM | > 100 µM | > 100 µM |  | > 100 µM
CCOC(=O)c1nc2ccccc2n(CC)c1=O | > 100 µM | > 100 µM | > 100 µM | > 100 µM | > 100 µM | > 100 µM | > 100 µM | > 100 µM | > 100 µM | > 100 µM | > 100 µM | > 100 µM | > 100 µM
CN(C)CCCNc1ccc2nnn3c4ccc(OC(=O)c5ccccc5)cc4c(=O)c1c23 | 29 µM | 24.3 µM | 20.8 µM | 34.3 µM | 25.6 µM | 29.6 µM | 15.2 µM | 4.49 µM | 28.3 µM | 30.2 µM | 10.7 µM | 20.9 µM | 11.7 µM
c1cc(-c2ccc(-c3nc4ccc(C5=NCCN5)cc4s3)s2)ccc1C1=NCCN1 | 0.821 µM | 0.249 µM | 2.61 µM | > 100 µM | 0.662 µM |  |  | 4 µM |  |  | 4.71 µM | 0.257 µM | 0.5 µM
CO/N=C(/C)c1cccc(Nc2nc3ccc(Cl)cc3c3[nH]c4ccccc4c23)c1 | 29.1 µM | 15.3 µM | 21.7 µM | 29.1 µM | 29.5 µM | 19.8 µM | 26 µM | 34.6 µM | 20.7 µM |  | 24.3 µM | 24.4 µM | 
O=C(O)CCO/N=C1/C(c2c(O)[nH]c3ccccc23)=Nc2ccccc21 | > 100 µM | > 100 µM | 38.3 µM | > 100 µM | > 100 µM | 46.9 µM | 44.8 µM | > 100 µM | > 100 µM | > 100 µM | 63.8 µM | > 100 µM | > 100 µM

Reference: PubChem BioAssay (NCI)
